Test results published in PubChem BioAssay AID2060895 (Molecular Pharmacology Branch, DTP, NCI, 2025).
Values belong to the compound of their own block, whether it stands above or below them.

Test system: PDC 899932-113-R3-J6 complex spheroid viability
Assay: Anticancer human tumor 899932-113-R3-J6-PDC patient-derived melanoma cell line growth inhibition [RAS]
Conditions: for IC50: curve of first compound; for viability, T/C: stronger effect = lower value
In short: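 Agents were tested in combination matrices in half-log decrements from a top concentration at or near clinical Cmax (10 microM if undetermined). Targets were multi-cell spheroids of tumour lines plus HUVEC and MSC stromal cells.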

[1] = second compound 0.000949 µM, first compound 0.00316 µM
[2] = second compound 0.000949 µM, first compound 0.01 µM
[3] = second compound 0.000949 µM, first compound 0.0316 µM
[4] = second compound 0.000949 µM, first compound 0.1 µM
[5] = second compound 0.000949 µM, first compound 0.316 µM
[6] = second compound 0.000949 µM, first compound 1 µM
[7] = second compound 0.003 µM, first compound 0.00316 µM
[8] = second compound 0.003 µM, first compound 0.01 µM
[9] = second compound 0.003 µM, first compound 0.0316 µM
[10] = second compound 0.003 µM, first compound 0.1 µM
[11] = second compound 0.003 µM, first compound 0.316 µM
[12] = second compound 0.003 µM, first compound 1 µM
[13] = second compound 0.00949 µM, first compound 0.00316 µM
[14] = second compound 0.00949 µM, first compound 0.01 µM
[15] = second compound 0.00949 µM, first compound 0.0316 µM
[16] = second compound 0.00949 µM, first compound 0.1 µM
[17] = second compound 0.00949 µM, first compound 0.316 µM
[18] = second compound 0.00949 µM, first compound 1 µM
[19] = second compound 0.03 µM, first compound 0.00316 µM
[20] = second compound 0.03 µM, first compound 0.01 µM
[21] = second compound 0.03 µM, first compound 0.0316 µM
[22] = second compound 0.03 µM, first compound 0.1 µM
[23] = second compound 0.03 µM, first compound 0.316 µM
[24] = second compound 0.03 µM, first compound 1 µM
[25] = second compound 0.0949 µM, first compound 0.00316 µM
[26] = second compound 0.0949 µM, first compound 0.01 µM
[27] = second compound 0.0949 µM, first compound 0.0316 µM
[28] = second compound 0.0949 µM, first compound 0.1 µM
[29] = second compound 0.0949 µM, first compound 0.316 µM
[30] = second compound 0.0949 µM, first compound 1 µM
[31] = second compound 0.3 µM, first compound 0.00316 µM
[32] = second compound 0.3 µM, first compound 0.01 µM
[33] = second compound 0.3 µM, first compound 0.0316 µM
[34] = second compound 0.3 µM, first compound 0.1 µM
[35] = second compound 0.3 µM, first compound 0.316 µM
[36] = second compound 0.3 µM, first compound 1 µM
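Wherever viability, T/C is given: spheroids exposed to agents for seven days before readout; 100% = DMSO vehicle control wells.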

- IC50 (second compound 0.000949 µM): 3.34 nM
- IC50 (second compound 0.003 µM): < 0.949 nM
- IC50 (second compound 0.00949 µM): < 0.949 nM
- IC50 (second compound 0.03 µM): < 0.949 nM
- IC50 (second compound 0.0949 µM): < 0.949 nM
- IC50 (second compound 0.3 µM): < 0.949 nM
Structure (SMILES): CC1(C)CCC(Nc2ncc(C(F)(F)F)c(-c3c[nH]c4c(P(C)(C)=O)c(C#N)ccc34)n2)CN1 (stereo unspecified) + CCn1c(-c2cc(N3CCN(C)CC3)cnc2C(C)OC)c2c3cc(ccc31)-c1csc(n1)CC(NC(=O)C1CC1C)C(=O)N1CCCC(N1)C(=O)OCC(C)(C)C2
- viability, T/C (second compound 0.000949 µM, first compound 0.000949 µM): 64.6%
- viability, T/C (second compound 0.000949 µM, first compound 0.003 µM): 51.2%
- viability, T/C (second compound 0.000949 µM, first compound 0.00949 µM): 37.5%
- viability, T/C (second compound 0.000949 µM, first compound 0.03 µM): 26.1%
- viability, T/C (second compound 0.000949 µM, first compound 0.0949 µM): 15.4%
- viability, T/C (second compound 0.000949 µM, first compound 0.3 µM): 9.12%
- viability, T/C (second compound 0.003 µM, first compound 0.000949 µM): 35%
- viability, T/C (second compound 0.003 µM, first compound 0.003 µM): 27.6%
- viability, T/C (second compound 0.003 µM, first compound 0.00949 µM): 21.9%
- viability, T/C (second compound 0.003 µM, first compound 0.03 µM): 14.6%
- viability, T/C (second compound 0.003 µM, first compound 0.0949 µM): 13.2%
- viability, T/C (second compound 0.003 µM, first compound 0.3 µM): 7.92%
- viability, T/C (second compound 0.00949 µM, first compound 0.000949 µM): 3.56%
- viability, T/C (second compound 0.00949 µM, first compound 0.003 µM): 4.08%
- viability, T/C (second compound 0.00949 µM, first compound 0.00949 µM): 4.01%
- viability, T/C (second compound 0.00949 µM, first compound 0.03 µM): 4.17%
- viability, T/C (second compound 0.00949 µM, first compound 0.0949 µM): 5.08%
- viability, T/C (second compound 0.00949 µM, first compound 0.3 µM): 5.25%
- viability, T/C (second compound 0.03 µM, first compound 0.000949 µM): 2.41%
- viability, T/C (second compound 0.03 µM, first compound 0.003 µM): 2.78%
- viability, T/C (second compound 0.03 µM, first compound 0.00949 µM): 2.34%
- viability, T/C (second compound 0.03 µM, first compound 0.03 µM): 2.28%
- viability, T/C (second compound 0.03 µM, first compound 0.0949 µM): 2.45%
- viability, T/C (second compound 0.03 µM, first compound 0.3 µM): 2.64%
- viability, T/C (second compound 0.0949 µM, first compound 0.000949 µM): 2.17%
- viability, T/C (second compound 0.0949 µM, first compound 0.003 µM): 2.21%
- viability, T/C (second compound 0.0949 µM, first compound 0.00949 µM): 2.67%
- viability, T/C (second compound 0.0949 µM, first compound 0.03 µM): 2.13%
- viability, T/C (second compound 0.0949 µM, first compound 0.0949 µM): 1.61%
- viability, T/C (second compound 0.0949 µM, first compound 0.3 µM): 2.1%
- viability, T/C (second compound 0.3 µM, first compound 0.000949 µM): 2.15%
- viability, T/C (second compound 0.3 µM, first compound 0.003 µM): 1.93%
- viability, T/C (second compound 0.3 µM, first compound 0.00949 µM): 1.68%
- viability, T/C (second compound 0.3 µM, first compound 0.03 µM): 1.68%
- viability, T/C (second compound 0.3 µM, first compound 0.0949 µM): 1.86%
- viability, T/C (second compound 0.3 µM, first compound 0.3 µM): 1.52%

- IC50 (second compound 0.000949 µM): > 1000 nM
- IC50 (second compound 0.003 µM): > 1000 nM
- IC50 (second compound 0.00949 µM): > 1000 nM
- IC50 (second compound 0.03 µM): > 1000 nM
- IC50 (second compound 0.0949 µM): > 1000 nM
- IC50 (second compound 0.3 µM): > 1000 nM
Structure (SMILES): C=CC(=O)Nc1cc(Nc2nccc(-c3cn(C)c4ccccc34)n2)c(OC)cc1N(C)CCN(C)C + CCn1c(-c2cccnc2C(C)OC)c2c3cc(ccc31)N1CCOC(CC(NC(=O)C(C(C)C)N(C)C(=O)C3(F)CCN(C(=O)C#CC(C)(C)N(C)C)CC3)C(=O)N3CCCC(N3)C(=O)OCC(C)(C)C2)C1
- viability, T/C [1]: 113%
- viability, T/C [2]: 98.3%
- viability, T/C [3]: 101%
- viability, T/C [4]: 106%
- viability, T/C [5]: 115%
- viability, T/C [6]: 102%
- viability, T/C [7]: 104%
- viability, T/C [8]: 116%
- viability, T/C [9]: 107%
- viability, T/C [10]: 104%
- viability, T/C [11]: 112%
- viability, T/C [12]: 99.5%
- viability, T/C [13]: 108%
- viability, T/C [14]: 102%
- viability, T/C [15]: 108%
- viability, T/C [16]: 101%
- viability, T/C [17]: 110%
- viability, T/C [18]: 95.1%
- viability, T/C [19]: 104%
- viability, T/C [20]: 102%
- viability, T/C [21]: 101%
- viability, T/C [22]: 112%
- viability, T/C [23]: 112%
- viability, T/C [24]: 100%
- viability, T/C [25]: 102%
- viability, T/C [26]: 99.1%
- viability, T/C [27]: 103%
- viability, T/C [28]: 105%
- viability, T/C [29]: 104%
- viability, T/C [30]: 89.8%
- viability, T/C [31]: 96.5%
- viability, T/C [32]: 85.5%
- viability, T/C [33]: 96%
- viability, T/C [34]: 92.3%
- viability, T/C [35]: 90.9%
- viability, T/C [36]: 85.8%

- IC50 (second compound 0.000949 µM): 8.14 nM
- IC50 (second compound 0.003 µM): 7.67 nM
- IC50 (second compound 0.00949 µM): 8.24 nM
- IC50 (second compound 0.03 µM): 6.76 nM
- IC50 (second compound 0.0949 µM): 6.85 nM
- IC50 (second compound 0.3 µM): 4.64 nM
Structure (SMILES): O=C(c1ccc(F)c(F)c1Nc1ccc(I)cc1F)N1CC(O)([C@@H]2CCCCN2)C1 + CCn1c(-c2cccnc2C(C)OC)c2c3cc(ccc31)N1CCOC(CC(NC(=O)C(C(C)C)N(C)C(=O)C3(F)CCN(C(=O)C#CC(C)(C)N(C)C)CC3)C(=O)N3CCCC(N3)C(=O)OCC(C)(C)C2)C1
- viability, T/C [1]: 72.5%
- viability, T/C [2]: 45.1%
- viability, T/C [3]: 4.63%
- viability, T/C [4]: 3.49%
- viability, T/C [5]: 1.64%
- viability, T/C [6]: 0.82%
- viability, T/C [7]: 72.3%
- viability, T/C [8]: 43.3%
- viability, T/C [9]: 4.76%
- viability, T/C [10]: 3.09%
- viability, T/C [11]: 1.48%
- viability, T/C [12]: 0.53%
- viability, T/C [13]: 72.4%
- viability, T/C [14]: 45.5%
- viability, T/C [15]: 5.4%
- viability, T/C [16]: 3.03%
- viability, T/C [17]: 1.85%
- viability, T/C [18]: 0.35%
- viability, T/C [19]: 71.6%
- viability, T/C [20]: 38.9%
- viability, T/C [21]: 5.26%
- viability, T/C [22]: 3.43%
- viability, T/C [23]: 1.55%
- viability, T/C [24]: 0.48%
- viability, T/C [25]: 73%
- viability, T/C [26]: 38.8%
- viability, T/C [27]: 4.74%
- viability, T/C [28]: 2.54%
- viability, T/C [29]: 1.48%
- viability, T/C [30]: 0.61%
- viability, T/C [31]: 60.2%
- viability, T/C [32]: 29.6%
- viability, T/C [33]: 3.92%
- viability, T/C [34]: 2.9%
- viability, T/C [35]: 0.95%
- viability, T/C [36]: 0.52%
